Data from patent US9163256B2, “Mutant receptors and their use in a nuclear receptor-based inducible gene expression system” (priority 2004, dated 2015).

System: CfEcR-DEF mutant V107I/Y127E
Test: GAL4-driven luciferase reporter assay in NIH3T3 cells
Assay type: cell-based, Choristoneura fumiferana
Set-up: Concentration (mM) at max FI: unit not given here
Description: This construct was prepared in the same way as in switch 1.1 above except wild-type CfEcR-DEF was replaced with mutant CfEcR-DEF comprising a ligand binding domain comprising a substitution mutation selected from Table 1 below.
DNAs were transfected into mouse NIH3T3 cells (ATCC) as follows. Standard methods for culture and maintenance of the cells were followed. Cells were harvested and plated 96-well plates at 2,500 cells per well, in 50 μL of growth medium containing 10% fetal bovine serum (FBS). Twenty-four hours later, the cells were treated with 35 μL of serum-free growth medium containing either dimethylsulfoxide (DMSO; control) or a DMSO solution of ligand. The cells were then transfected using Superfect (Qiagen Inc.) transfection reagent. For each well, 0.625 μL of Superfect was mixed with 14.2 μL of serum-free growth medium. 0.16 μg of reporter construct and 0.04 μg of each receptor construct were added to the transfection reagent mix. […]
Reporter Assays: Cells were harvested 40 hours after adding ligands. […] Luciferase activity was measured using Dual-Luciferase reporter assay system from Promega Corporation following the manufacturer's instructions. Fold induction (FI) activities were calculated by dividing relative light units (“RLU”) in ligand treated cells with RLU in DMSO treated cells (untreated control).

SMILES: CCc1c(OC)cccc1C(=O)NN(C(=O)c1cc(C)cc(C)c1)C(C)(C)C [RG-102240, N-(2-ethyl-3-methoxybenzoyl)-N′-(3,5-dimethylbenzoyl)-N′-tert-butylhydrazine]
- GS-E ligand max FI (relative to DMSO): 3146
- Concentration (mM) at max FI (GS-E ligand): 10
